The values that follow are results of earlier work, collected in publication PMC6257630, “Photoactivatable Cell-Selective Dinuclear trans-Diazidoplatinum(IV) Anticancer Prodrugs” (Inorganic Chemistry, 2018).

What is called IC50 is the concentration at which inhibition is half-maximal.

The test system of this data set is cisplatin-resistant A2780cis cells. The arrangement: method as in PMID 20677309. Particulars: irradiation with UVA (365 nm); cited from earlier work.

In the case of “trans,trans,trans-[Pt(N3)2(OH)2(py)2] [FM-190]”, the IC50 was 14.5 µM.
